Measured values reported in patent US20250171426A1, “PYRIMIDINEDIONE-BASED COMPOUNDS AS AXL, C-MET, AND MER INHIBITORS AND METHODS OF USE THEREOF” (CMG Pharmaceutical Co., Ltd., priority 2022, published 2025).

Tests used:
Type in all cases: biochemical
Conditions in all cases: 10 μM ATP, 60 min, ADP-GLO luminescence
MER = biological target: T1, MER (Homo sapiens, UniProt Q12866); test: Enzymatic assay (ADP-Glo kinase reaction), MER
T1 sequence (Q12866 21-999): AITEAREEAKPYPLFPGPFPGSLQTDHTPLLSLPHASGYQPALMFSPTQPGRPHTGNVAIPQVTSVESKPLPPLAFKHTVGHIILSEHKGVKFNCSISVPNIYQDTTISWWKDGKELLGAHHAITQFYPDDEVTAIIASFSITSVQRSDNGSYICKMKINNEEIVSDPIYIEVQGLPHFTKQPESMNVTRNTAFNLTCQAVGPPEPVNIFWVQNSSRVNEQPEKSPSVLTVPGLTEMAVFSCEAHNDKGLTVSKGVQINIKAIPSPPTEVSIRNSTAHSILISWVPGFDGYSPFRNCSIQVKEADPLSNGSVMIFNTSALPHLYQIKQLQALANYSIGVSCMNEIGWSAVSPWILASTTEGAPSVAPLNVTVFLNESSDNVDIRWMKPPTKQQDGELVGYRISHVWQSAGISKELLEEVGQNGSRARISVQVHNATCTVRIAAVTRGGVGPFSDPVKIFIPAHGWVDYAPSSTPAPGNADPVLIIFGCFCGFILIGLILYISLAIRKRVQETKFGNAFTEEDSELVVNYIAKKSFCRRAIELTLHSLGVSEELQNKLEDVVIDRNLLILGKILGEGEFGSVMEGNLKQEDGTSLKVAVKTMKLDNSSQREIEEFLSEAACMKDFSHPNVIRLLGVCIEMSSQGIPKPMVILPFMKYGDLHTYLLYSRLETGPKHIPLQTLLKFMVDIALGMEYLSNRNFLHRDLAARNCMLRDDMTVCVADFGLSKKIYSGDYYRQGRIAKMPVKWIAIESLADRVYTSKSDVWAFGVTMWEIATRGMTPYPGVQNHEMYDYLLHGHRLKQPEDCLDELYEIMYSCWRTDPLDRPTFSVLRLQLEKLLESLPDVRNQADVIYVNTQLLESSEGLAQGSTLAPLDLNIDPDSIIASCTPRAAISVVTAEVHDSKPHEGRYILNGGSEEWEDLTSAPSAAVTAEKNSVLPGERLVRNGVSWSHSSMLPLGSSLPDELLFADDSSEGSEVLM
Protocol: (§1) All the kinase reactions were performed in 5 μL using tyrosine kinase buffer with 0.2 μg/μL poly (Glu4, Tyr1) substrate, 10 μM ATP, serial dilution of the inhibitor, and incubated at room temperature for 60 min. After the indicated incubation times, 5 μL ADP-GLO™ reagent (Promega, Madison, WI) was added to the reactions and the plate was incubated at room temperature for 40 min. Then, 10 μL of kinase detection reagent was added and after an incubation time of 40 min, luminescence was recorded and IC50 values were determined (Table 1). All 384-well assay plates were read using a GLOMAX™ Discover Microplate Luminometer from Promega (Madison, WI). To plot, analyze the data and calculate all kinase reaction biochemical values, both Microsoft Excel and Prism from GraphPad 7 Software (La Jolla, CA) were used.
as §1, with “3).” for “1).”

c-MET = c-MET (Homo sapiens, UniProt P08581); test: Enzymatic assay (ADP-Glo kinase reaction), c-MET
c-MET, sequence (P08581 25-1390): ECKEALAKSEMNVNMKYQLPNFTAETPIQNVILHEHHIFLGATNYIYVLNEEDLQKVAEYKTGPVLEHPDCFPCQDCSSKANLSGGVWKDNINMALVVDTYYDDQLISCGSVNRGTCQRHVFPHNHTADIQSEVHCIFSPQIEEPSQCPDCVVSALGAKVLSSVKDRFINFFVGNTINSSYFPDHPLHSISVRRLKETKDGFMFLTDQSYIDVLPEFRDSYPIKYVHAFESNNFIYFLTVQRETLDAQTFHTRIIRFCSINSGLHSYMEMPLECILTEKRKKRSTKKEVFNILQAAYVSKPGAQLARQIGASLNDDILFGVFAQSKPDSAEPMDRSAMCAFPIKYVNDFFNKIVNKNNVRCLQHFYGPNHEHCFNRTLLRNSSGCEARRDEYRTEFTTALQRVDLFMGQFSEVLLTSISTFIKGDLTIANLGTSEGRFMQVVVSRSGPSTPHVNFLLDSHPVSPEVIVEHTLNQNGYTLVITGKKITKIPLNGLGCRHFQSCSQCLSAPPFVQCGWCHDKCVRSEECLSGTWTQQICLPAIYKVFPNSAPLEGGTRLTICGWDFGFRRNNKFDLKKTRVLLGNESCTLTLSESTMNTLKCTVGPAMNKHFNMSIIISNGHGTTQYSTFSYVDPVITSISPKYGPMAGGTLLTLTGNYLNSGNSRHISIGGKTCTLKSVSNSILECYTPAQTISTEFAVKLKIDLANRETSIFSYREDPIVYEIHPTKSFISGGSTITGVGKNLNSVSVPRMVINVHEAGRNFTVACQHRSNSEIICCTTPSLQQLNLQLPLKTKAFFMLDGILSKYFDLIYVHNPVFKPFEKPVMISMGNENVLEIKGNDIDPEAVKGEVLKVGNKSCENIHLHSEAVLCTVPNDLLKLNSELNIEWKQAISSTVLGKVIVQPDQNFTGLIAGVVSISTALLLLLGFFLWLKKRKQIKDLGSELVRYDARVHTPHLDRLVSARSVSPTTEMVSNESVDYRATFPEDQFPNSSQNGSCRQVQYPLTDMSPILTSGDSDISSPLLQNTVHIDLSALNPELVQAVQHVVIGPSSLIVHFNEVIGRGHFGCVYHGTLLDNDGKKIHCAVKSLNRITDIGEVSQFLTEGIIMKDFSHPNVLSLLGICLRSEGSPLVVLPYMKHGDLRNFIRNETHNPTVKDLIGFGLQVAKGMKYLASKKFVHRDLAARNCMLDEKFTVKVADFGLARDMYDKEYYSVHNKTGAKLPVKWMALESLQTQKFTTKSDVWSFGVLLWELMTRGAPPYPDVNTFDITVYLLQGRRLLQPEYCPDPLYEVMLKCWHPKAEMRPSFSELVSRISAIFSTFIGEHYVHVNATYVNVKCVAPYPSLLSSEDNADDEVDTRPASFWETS
Protocol: as §1, with “Then, 10 μL of kinase detection reagent was added and after an incubation time of 40 min, luminescence was recorded and IC50 values were determined (Table 1).” left out

AXL = biological target: T2, AXL (Homo sapiens, UniProt P30530); test: Enzymatic assay (ADP-Glo kinase reaction), AXL
T2 sequence (P30530 26-894): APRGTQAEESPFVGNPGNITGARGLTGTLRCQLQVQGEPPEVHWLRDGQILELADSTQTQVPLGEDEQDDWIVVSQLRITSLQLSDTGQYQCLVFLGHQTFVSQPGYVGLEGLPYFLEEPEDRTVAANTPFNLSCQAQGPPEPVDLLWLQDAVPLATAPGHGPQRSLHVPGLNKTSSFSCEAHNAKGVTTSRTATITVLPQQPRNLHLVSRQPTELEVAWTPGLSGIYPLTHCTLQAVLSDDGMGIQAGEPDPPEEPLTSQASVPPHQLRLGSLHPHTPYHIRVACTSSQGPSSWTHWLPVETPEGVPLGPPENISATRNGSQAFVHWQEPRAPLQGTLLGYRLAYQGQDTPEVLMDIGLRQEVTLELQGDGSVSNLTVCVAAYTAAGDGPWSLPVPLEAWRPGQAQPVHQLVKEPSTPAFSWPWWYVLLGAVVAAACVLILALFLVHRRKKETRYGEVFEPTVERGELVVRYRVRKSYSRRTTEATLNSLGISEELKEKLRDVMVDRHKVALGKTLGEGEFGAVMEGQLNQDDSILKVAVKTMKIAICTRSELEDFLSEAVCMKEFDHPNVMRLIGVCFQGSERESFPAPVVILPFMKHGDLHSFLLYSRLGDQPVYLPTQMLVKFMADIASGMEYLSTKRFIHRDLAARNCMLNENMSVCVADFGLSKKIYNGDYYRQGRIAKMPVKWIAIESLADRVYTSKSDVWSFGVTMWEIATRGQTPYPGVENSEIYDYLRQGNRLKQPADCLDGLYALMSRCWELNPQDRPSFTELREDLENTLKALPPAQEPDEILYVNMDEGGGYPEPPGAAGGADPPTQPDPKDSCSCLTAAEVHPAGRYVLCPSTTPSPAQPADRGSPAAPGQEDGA
Protocol: as §1, with “Then, 10 μL of kinase detection reagent was added and after an incubation time of 40 min, luminescence was recorded and IC50 values were determined (Table 1).” left out

IC50 (MER)	IC50 (c-MET)	IC50 (AXL)	SMILES
< 100 nM	< 1000 nM	< 10000 nM	CN(C)C(=O)Cn1cc(C(=O)Nc2ccc(Oc3ccnc(N)c3C#CC(C)(C)N3CCOCC3)c(F)c2)c(=O)n(-c2ccc(F)cc2)c1=O [Example 33, N-(4-((2-amino-3-(3-methyl-3-morpholinobut-1-yn-1-yl)pyridin-4-yl)oxy)-3-fluorophenyl)-1-(2-(dimethylamino)-2-oxoethyl)-3-(4-fluorophenyl)-2,4-dioxo-1,2,3,4-tetrahydropyrimidine-5-carboxamide]
< 100 nM	< 10000 nM	< 1000 nM	CN(C)C(=O)Cn1cc(C(=O)Nc2ccc(Oc3ccnc(N)c3C#CCN3CCOCC3)c(F)c2)c(=O)n(-c2ccc(F)cc2)c1=O [Example 34, N-(4-((2-amino-3-(3-morpholinoprop-1-yn-1-yl)pyridin-4-yl)oxy)-3-fluorophenyl)-1-(2-(dimethylamino)-2-oxoethyl)-3-(4-fluorophenyl)-2,4-dioxo-1,2,3,4-tetrahydropyrimidine-5-carboxamide]
< 100 nM	< 10000 nM	< 10000 nM	CN(C)C(=O)Cn1cc(C(=O)Nc2ccc(Oc3ccnc(N)c3C#CC(C)(C)N3CCNCC3)c(F)c2)c(=O)n(-c2ccc(F)cc2)c1=O [Example 35, N-(4-((2-amino-3-(3-methyl-3-(piperazin-1-yl)but-1-yn-1-yl)pyridin-4-yl)oxy)-3-fluorophenyl)-1-(2-(dimethylamino)-2-oxoethyl)-3-(4-fluorophenyl)-2,4-dioxo-1,2,3,4-tetrahydropyrimidine-5-carboxamide]
< 10 nM	< 10000 nM	< 100 nM	CN1CCC(CC#Cc2c(Oc3ccc(NC(=O)c4cn(CC(=O)N(C)C)c(=O)n(-c5ccc(F)cc5)c4=O)cc3F)ccnc2N)CC1 [Example 37, N-(4-((2-amino-3-(3-(1-methylpiperidin-4-yl)prop-1-yn-1-yl)pyridin-4-yl)oxy)-3-fluorophenyl)-1-(2-(dimethylamino)-2-oxoethyl)-3-(4-fluorophenyl)-2,4-dioxo-1,2,3,4-tetrahydropyrimidine-5-carboxamide]
< 10 nM	< 10 nM	< 100 nM	CN(C)C(=O)Cn1cc(C(=O)Nc2ccc(Oc3ccnc(N)c3C#CCC3CCNCC3)c(F)c2)c(=O)n(-c2ccc(F)cc2)c1=O [Example 38, N-(4-((2-amino-3-(3-(piperidin-4-yl)prop-1-yn-1-yl)pyridin-4-yl)oxy)-3-fluorophenyl)-1-(2-(dimethylamino)-2-oxoethyl)-3-(4-fluorophenyl)-2,4-dioxo-1,2,3,4-tetrahydropyrimidine-5-carboxamide]
< 100 nM	< 1000 nM	< 100 nM	Cc1nc(Cn2cc(C(=O)Nc3ccc(Oc4ccnc(N)c4C#CCN4CCOCC4)c(F)c3)c(=O)n(-c3ccc(F)cc3)c2=O)cs1 [Example 40, N-(4-((2-amino-3-(3-morpholinoprop-1-yn-1-yl)pyridin-4-yl)oxy)-3-fluorophenyl)-3-(4-fluorophenyl)-1-((2-methylthiazol-4-yl)methyl)-2,4-dioxo-1,2,3,4-tetrahydropyrimidine-5-carboxamide]

The remaining lines, values behind:

SMILES	IC50 (MER)	IC50 (c-MET)	IC50 (AXL)
CC(C)N1CCC(CC#Cc2c(Oc3ccc(NC(=O)c4cn(C(C)C)c(=O)n(-c5ccc(F)cc5)c4=O)cc3F)ccnc2N)CC1 [Example 29, N-(4-(2-amino-3-(3-(1-isopropylpiperidin-4-yl)prop-1-ynyl)pyridin-4-yloxy)-3-fluorophenyl)-3-(4-fluorophenyl)-1-isopropyl-2,4-dioxo-1,2,3,4-tetrahydropyrimidine-5-carboxamide]	< 10 nM	< 10 nM	< 10 nM
CN1CCN(C(C)(C)C#Cc2c(Oc3ccc(NC(=O)c4cn(CC(=O)N(C)C)c(=O)n(-c5ccc(F)cc5)c4=O)cc3F)ccnc2N)CC1 [Example 36, N-(4-((2-amino-3-(3-methyl-3-(4-methylpiperazin-1-yl)but-1-yn-1-yl)pyridin-4-yl)oxy)-3-fluorophenyl)-1-(2-(dimethylamino)-2-oxoethyl)-3-(4-fluorophenyl)-2,4-dioxo-1,2,3,4-tetrahydropyrimidine-5-carboxamide]	< 1000 nM	< 10000 nM	< 10000 nM
Cc1nc(Cn2cc(C(=O)Nc3ccc(Oc4ccnc(N)c4C#CC(C)(C)N4CCOCC4)c(F)c3)c(=O)n(-c3ccc(F)cc3)c2=O)cs1 [Example 39, N-(4-((2-amino-3-(3-methyl-3-morpholinobut-1-yn-1-yl)pyridin-4-yl)oxy)-3-fluorophenyl)-3-(4-fluorophenyl)-1-((2-methylthiazol-4-yl)methyl)-2,4-dioxo-1,2,3,4-tetrahydropyrimidine-5-carboxamide]	< 100 nM	< 100 nM	< 100 nM
Cc1nc(Cn2cc(C(=O)Nc3ccc(Oc4ccnc(N)c4C#CC(C)(C)N4CCNCC4)c(F)c3)c(=O)n(-c3ccc(F)cc3)c2=O)cs1 [Example 41, N-(4-((2-amino-3-(3-methyl-3-(piperazin-1-yl)but-1-yn-1-yl)pyridin-4-yl)oxy)-3-fluorophenyl)-3-(4-fluorophenyl)-1-((2-methylthiazol-4-yl)methyl)-2,4-dioxo-1,2,3,4-tetrahydropyrimidine-5-carboxamide]	< 100 nM	< 100 nM	< 100 nM
Cc1nc(Cn2cc(C(=O)Nc3ccc(Oc4ccnc(N)c4C#CC(C)(C)N4CCN(C)CC4)c(F)c3)c(=O)n(-c3ccc(F)cc3)c2=O)cs1 [Example 42, N-(4-((2-amino-3-(3-methyl-3-(4-methylpiperazin-1-yl)but-1-yn-1-yl)pyridin-4-yl)oxy)-3-fluorophenyl)-3-(4-fluorophenyl)-1-((2-methylthiazol-4-yl)methyl)-2,4-dioxo-1,2,3,4-tetrahydropyrimidine-5-carboxamide]	< 100 nM	< 100 nM	< 1000 nM
